Data reported in ChEMBL document CHEMBL3046557, “Synthesis, biological evaluation, and molecular modeling studies of novel heterocyclic compounds as anti-proliferative agents” (2013).

Key:
Format in all cases: functional
T47D = experiment: Cytotoxicity against human T47D after 48 hrs by SRB assay
SF-539 = experiment: Cytotoxicity against human SF539 after 48 hrs by SRB assay; conditions: SF-539, 48 h
COLO 205 = experiment: Cytotoxicity against human COLO205 after 48 hrs by SRB assay; conditions: COLO 205, 48 h
SW-620 = experiment: Cytotoxicity against human SW620 after 48 hrs by SRB assay; conditions: SW-620, 48 h
NCI-H322M = experiment: Cytotoxicity against human NCI-H322M after 48 hrs by SRB assay
RPMI-8226 = experiment: Cytotoxicity against human RPMI8226 after 48 hrs by SRB assay; conditions: RPMI-8226, 48 h
MOLT-4 = experiment: Cytotoxicity against human MOLT4 after 48 hrs by SRB assay; conditions: MOLT-4, 48 h
UACC-62 = experiment: Cytotoxicity against human UACC62 after 48 hrs by SRB assay; conditions: UACC-62, 48 h
SK-OV-3 = experiment: Cytotoxicity against human SKOV3 after 48 hrs by SRB assay; conditions: SK-OV-3, 48 h
CAKI-1 = experiment: Cytotoxicity against human Caki1 after 48 hrs by SRB assay; conditions: CAKI-1, 48 h
[1] = Cytotoxicity against human NCI-ADR-RES after 48 hrs by SRB assay
NCI-H460 = experiment: Cytotoxicity against human NCI-H460 after 48 hrs by SRB assay; conditions: NCI-H460, 48 h
HCC 2998 = experiment: Cytotoxicity against human HCC2998 after 48 hrs by SRB assay; conditions: HCC 2998, 48 h
HOP-92 = experiment: Cytotoxicity against human HOP92 after 48 hrs by SRB assay; conditions: HOP-92, 48 h
SN12C = experiment: Cytotoxicity against human SN12C after 48 hrs by SRB assay
OVCAR-5 = experiment: Cytotoxicity against human OVCAR5 after 48 hrs by SRB assay; conditions: OVCAR-5, 48 h
SNB-19 = experiment: Cytotoxicity against human SNB19 after 48 hrs by SRB assay; conditions: SNB-19, 48 h
UO-31 = experiment: Cytotoxicity against human UO31 after 48 hrs by SRB assay; conditions: UO-31, 48 h
EKVX = experiment: Cytotoxicity against human EKVX after 48 hrs by SRB assay
MDA-MB-435 = experiment: Cytotoxicity against human MDA-MB-435 after 48 hrs by SRB assay; conditions: MDA-MB-435, 48 h
SF-268 = experiment: Cytotoxicity against human SF268 after 48 hrs by SRB assay; conditions: SF-268, 48 h
DU-145 = experiment: Cytotoxicity against human DU145 after 48 hrs by SRB assay; conditions: DU-145, 48 h
HOP-62 = experiment: Cytotoxicity against human HOP62 after 48 hrs by SRB assay; conditions: HOP-62, 48 h
KM12 = experiment: Cytotoxicity against human KM12 after 48 hrs by SRB assay; conditions: KM12, 48 h
MDA-MB-231 = experiment: Cytotoxicity against human MDA-MB-231 after 48 hrs by SRB assay; conditions: MDA-MB-231, 48 h
NCI-H226 = experiment: Cytotoxicity against human NCI-H226 after 48 hrs by SRB assay; conditions: NCI-H226, 48 h
A549 = experiment: Cytotoxicity against human A549 after 48 hrs by SRB assay; conditions: A549, 48 h
ACHN = experiment: Cytotoxicity against human ACHN after 48 hrs by SRB assay
BT-549 = experiment: Cytotoxicity against human BT549 after 48 hrs by SRB assay; conditions: BT-549, 48 h
SK-MEL-28 = experiment: Cytotoxicity against human SK-MEL-28 after 48 hrs by SRB assay; conditions: SK-MEL-28, 48 h
U-251 = experiment: Cytotoxicity against human U251 after 48 hrs by SRB assay; conditions: U-251, 48 h
OVCAR-3 = experiment: Cytotoxicity against human OVCAR3 after 48 hrs by SRB assay; conditions: OVCAR-3, 48 h
Malme-3M = experiment: Cytotoxicity against human MALME-3M after 48 hrs by SRB assay
RXF 393 = experiment: Cytotoxicity against human RXF393 after 48 hrs by SRB assay; conditions: RXF 393, 48 h
LOX IMVI = experiment: Cytotoxicity against human LOXIMVI after 48 hrs by SRB assay
SNB-75 = experiment: Cytotoxicity against human SNB75 after 48 hrs by SRB assay; conditions: SNB-75, 48 h
MCF7 = experiment: Cytotoxicity against human MCF7 after 48 hrs by SRB assay; conditions: MCF7, 48 h
OVCAR-8 = experiment: Cytotoxicity against human OVCAR8 after 48 hrs by SRB assay; conditions: OVCAR-8, 48 h
HCT-15 = experiment: Cytotoxicity against human HCT15 after 48 hrs by SRB assay; conditions: HCT-15, 48 h
786-0 = experiment: Cytotoxicity against human 786-0 after 48 hrs by SRB assay; conditions: 786-0, 48 h
SF-295 = experiment: Cytotoxicity against human SF295 after 48 hrs by SRB assay; conditions: SF-295, 48 h
OVCAR-4 = experiment: Cytotoxicity against human OVCAR4 after 48 hrs by SRB assay; conditions: OVCAR-4, 48 h
Hs-578T = experiment: Cytotoxicity against human Hs 578T after 48 hrs by SRB assay
NCI-H23 = experiment: Cytotoxicity against human NCI-H23 after 48 hrs by SRB assay; conditions: NCI-H23, 48 h
TK-10 = experiment: Cytotoxicity against human TK10 after 48 hrs by SRB assay; conditions: TK-10, 48 h
PC-3 = experiment: Cytotoxicity against human PC3 after 48 hrs by SRB assay; conditions: PC-3, 48 h
SR = experiment: Cytotoxicity against human SR after 48 hrs by SRB assay
NCI-H522 = experiment: Cytotoxicity against human NCI-H522 after 48 hrs by SRB assay; conditions: NCI-H522, 48 h
CCRF-CEM = experiment: Cytotoxicity against human CCRF-CEM after 48 hrs by SRB assay
HT-29 = experiment: Cytotoxicity against human HT-29 after 48 hrs by SRB assay; conditions: HT-29, 48 h
UACC-257 = experiment: Cytotoxicity against human UACC257 after 48 hrs by SRB assay; conditions: UACC-257, 48 h
SK-MEL-2 = experiment: Cytotoxicity against human SK-MEL-2 after 48 hrs by SRB assay; conditions: SK-MEL-2, 48 h
HCT-116 = experiment: Cytotoxicity against human HCT116 after 48 hrs by SRB assay; conditions: HCT-116, 48 h
M14 = experiment: Cytotoxicity against human M14 after 48 hrs by SRB assay; conditions: M14, 48 h
SK-MEL-5 = experiment: Cytotoxicity against human SK-MEL-5 after 48 hrs by SRB assay; conditions: SK-MEL-5, 48 h
K562 = experiment: Cytotoxicity against human K562 after 48 hrs by SRB assay; conditions: K562, 48 h

Molecule CC12CCC(C(CN3C(=O)C(=O)c4ccccc43)C1=O)C2(C)C (configuration not stated) has a GI50 (T47D) of 20.6 µM, a TGI (T47D) of 46.7 µM and a GI50 (SF-539) of 12.8 µM. The TGI (SF-539) was 25.8 µM, the GI50 (COLO 205) was 12.6 µM and the TGI (COLO 205) was 29.2 µM. It also gave a GI50 (SW-620) of 3.21 µM, a TGI (SW-620) of 9.25 µM and a GI50 (NCI-H322M) of 23.4 µM. For the same molecule, the TGI (NCI-H322M) was 38.3 µM, the GI50 (RPMI-8226) was 3.22 µM and the TGI (RPMI-8226) was 17.2 µM. For the same molecule, the GI50 (MOLT-4) was 3.51 µM, the TGI (MOLT-4) was 10.6 µM and the GI50 (UACC-62) was 16.2 µM. For the same molecule, the TGI (UACC-62) was 30.6 µM, the GI50 (SK-OV-3) was 14.8 µM and the TGI (SK-OV-3) was 28.5 µM. It also gave a GI50 (CAKI-1) of 16.3 µM, a TGI (CAKI-1) of 31.3 µM and a GI50 [1] of 12.7 µM. The TGI [1] was 35.3 µM, the GI50 (NCI-H460) was 16.9 µM and the TGI (NCI-H460) was 36.5 µM. The GI50 (HCC 2998) was 13.5 µM, the TGI (HCC 2998) was 27.5 µM and the GI50 (HOP-92) was 17.9 µM. For the same molecule, the TGI (HOP-92) was 38.3 µM, the GI50 (SN12C) was 15.3 µM and the TGI (SN12C) was 31.6 µM. For the same molecule, the GI50 (OVCAR-5) was 14.8 µM, the TGI (OVCAR-5) was 28.4 µM and the GI50 (SNB-19) was 13.8 µM. It also gave a TGI (SNB-19) of 26.6 µM, a GI50 (UO-31) of 13.2 µM and a TGI (UO-31) of 26.2 µM. The GI50 (EKVX) was 19.6 µM, the TGI (EKVX) was 37.9 µM and the GI50 (MDA-MB-435) was 15.6 µM. For the same molecule, the TGI (MDA-MB-435) was 32.9 µM, the GI50 (SF-268) was 15.8 µM and the TGI (SF-268) was 36 µM. The GI50 (DU-145) was 14.9 µM, the TGI (DU-145) was 28.1 µM and the GI50 (HOP-62) was 15.6 µM. It also gave a TGI (HOP-62) of 30.1 µM, a GI50 (KM12) of 4.12 µM and a TGI (KM12) of 12.5 µM. It also gave a GI50 (MDA-MB-231) of 15.1 µM, a TGI (MDA-MB-231) of 30 µM and a GI50 (NCI-H226) of 21.8 µM. For the same molecule, the TGI (NCI-H226) was 61 µM, the GI50 (A549) was 16.9 µM and the TGI (A549) was 32.9 µM. For the same molecule, the GI50 (ACHN) was 16.2 µM, the TGI (ACHN) was 29.7 µM and the GI50 (BT-549) was 12.3 µM. For the same molecule, the TGI (BT-549) was 24.8 µM, the GI50 (SK-MEL-28) was 19.7 µM and the TGI (SK-MEL-28) was 39.5 µM. It also gave a GI50 (U-251) of 15.4 µM, a TGI (U-251) of 29.3 µM and a GI50 (OVCAR-3) of 15.6 µM. For the same molecule, the TGI (OVCAR-3) was 33.5 µM, the GI50 (Malme-3M) was 26.9 µM and the TGI (Malme-3M) was 44.8 µM. It also gave a GI50 (RXF 393) of 5.46 µM, a TGI (RXF 393) of 16.9 µM and a GI50 (LOX IMVI) of 10.4 µM. It also gave a TGI (LOX IMVI) of 24.5 µM, a GI50 (SNB-75) of 17.1 µM and a TGI (SNB-75) of 33.1 µM. For the same molecule, the GI50 (MCF7) was 5.8 µM, the TGI (MCF7) was 24.6 µM and the GI50 (OVCAR-8) was 2.86 µM. For the same molecule, the TGI (OVCAR-8) was 6.97 µM, the GI50 (HCT-15) was 17.1 µM and the TGI (HCT-15) was 34.7 µM. For the same molecule, the GI50 (786-0) was 16.8 µM, the TGI (786-0) was 30.8 µM and the GI50 (SF-295) was 11.1 µM. The TGI (SF-295) was 24.3 µM, the GI50 (OVCAR-4) was 18.8 µM and the TGI (OVCAR-4) was 44.1 µM. It also gave a GI50 (Hs-578T) of 13.8 µM, a TGI (Hs-578T) of 32.6 µM and a GI50 (NCI-H23) of 14.5 µM. It also gave a TGI (NCI-H23) of 29.6 µM, a GI50 (TK-10) of 14.8 µM and a TGI (TK-10) of 28.5 µM. For the same molecule, the GI50 (PC-3) was 11.9 µM, the TGI (PC-3) was 25.9 µM and the GI50 (SR) was 1.53 µM. The TGI (SR) was 4.02 µM, the GI50 (NCI-H522) was 13.5 µM and the TGI (NCI-H522) was 29.4 µM. The GI50 (CCRF-CEM) was 7.46 µM, the TGI (CCRF-CEM) was 28.6 µM and the GI50 (HT-29) was 5.45 µM. The TGI (HT-29) was 20.4 µM, the GI50 (UACC-257) was 13.9 µM and the TGI (UACC-257) was 31.1 µM. For the same molecule, the GI50 (SK-MEL-2) was 19 µM, the TGI (SK-MEL-2) was 41.7 µM and the GI50 (HCT-116) was 1.95 µM. The TGI (HCT-116) was 3.76 µM, the GI50 (M14) was 15.9 µM and the TGI (M14) was 33.5 µM. For the same molecule, the GI50 (SK-MEL-5) was 17.3 µM, the TGI (SK-MEL-5) was 33 µM and the GI50 (K562) was 2.46 µM. The TGI (K562) was 8.2 µM.
